In US20070128217A1 (priority 2003, published 2007):

Tests used:
[1] = tested on: rabbit serum obtained by immunizing a rabbit with the SARS-CoV strain Frankfurt 1; assay type: binding; set-up: Binding of a rabbit serum to linear peptides / Binding of a rabbit serum to looped peptides / Rabbit serum linear peptides / Rabbit serum looped peptides / Binding of a rabbit serum to linear peptides of protein N of SARS-CoV Urbani (Rabbit serum linear peptides) / Binding of a rabbit serum to looped/cyclic peptides of protein N of SARS-CoV Urbani (Rabbit serum looped peptides): unit not given here
[2] = tested on: antibodies in sera from SARS patients (sera 1a, 1b, 2, 6, 37, 62, London, SARS-yellow, SARS-green); assay type: binding, human; set-up: Binding of serum 6 to linear peptides of protein X1 of SARS-CoV Urbani / Binding of serum 37 to linear peptides of protein X1 of SARS-CoV Urbani / Binding of serum 6 to looped/cyclic peptide (PEPSCAN-ELISA) / Binding of serum 37 to looped/cyclic peptide (PEPSCAN-ELISA) / Binding of serum 37 to looped/cyclic peptides of protein X1 of SARS-CoV Urbani / Binding of serum 6 to linear peptides of protein X2 / Binding of serum 37 to linear peptides of protein X2 / Binding of serum 37 to looped/cyclic peptides of protein X2 of SARS-CoV Urbani / Binding of serum 6 to linear peptides of protein M of SARS-CoV Urbani / Binding of serum 37 to linear peptides of protein M of SARS-CoV Urbani / Binding of serum 6 to looped/cyclic peptides of protein M of SARS-CoV Urbani / Binding of serum 37 to looped/cyclic peptides of protein M of SARS-CoV Urbani / Binding of serum 6 to linear peptides of protein X3 of SARS-CoV Urbani / Binding of serum 37 to linear peptides of protein X3 of SARS-CoV Urbani / Binding of serum 37 to looped/cyclic peptides of protein X3 of SARS-CoV Urbani / Binding of serum 6 to linear peptides of protein X4 of SARS-CoV Urbani / Binding of serum 37 to linear peptides of protein X4 of SARS-CoV Urbani / Binding of serum 37 to looped/cyclic peptides of protein X4 of SARS-CoV Urbani / Binding of serum 6 to linear peptides of protein X5 of SARS-CoV Urbani / Binding of serum 37 to linear peptides of protein X5 of SARS-CoV Urbani / Binding of serum 37 to looped/cyclic peptides of protein X5 of SARS-CoV Urbani / Binding of serum 6 to linear peptides of protein N of SARS-CoV Urbani / Binding of serum 37 to linear peptides of protein N of SARS-CoV Urbani / Binding of serum 6 to linear peptide (PEPSCAN-ELISA) / Binding of serum 1a to looped/cyclic peptides of protein N of SARS-CoV Urbani / Binding of serum 1b to looped/cyclic peptides of protein N of SARS-CoV Urbani / Binding of serum 2 to looped/cyclic peptides of protein N of SARS-CoV Urbani / Binding of serum 6 to looped/cyclic peptides of protein N of SARS-CoV Urbani / Binding of serum 37 to looped/cyclic peptides of protein N of SARS-CoV Urbani / Binding of serum 62 to looped/cyclic peptides of protein N of SARS-CoV Urbani / Binding of serum London to looped/cyclic peptides of protein N of SARS-CoV Urbani / Binding of serum SARS-green to looped/cyclic peptides of protein N of SARS-CoV Urbani: unit not given here
[3] = tested on: recombinant human anti-SARS-CoV antibody 03-018; assay type: binding; set-up: Binding of antibody 03-018 to linear peptides of the N protein of SARS-CoV Urbani / Binding of antibody 03-018 to looped/cyclic peptides of the N protein of SARS-CoV Urbani: unit not given here
[4] = tested on: control sera (pooled serum of ten healthy LUMC hospital workers; commercial negative donor pooled serum from the Dutch bloodbank); assay type: binding, human; set-up: Binding of Control serum LUMC to linear peptides / Binding of Control serum Blood-bank to linear peptides / Binding of Control serum LUMC to looped peptides / Binding of Control Serum Blood-Bank to Looped peptides / Binding of Control serum LUMC to linear peptides of the protein M of SARS-CoV Urbani / Binding of Control serum Blood-bank to linear peptides of the protein M of SARS-CoV Urbani / Binding of Control serum LUMC to looped peptides of the protein M of SARS-CoV Urbani / Binding of Control Serum Blood-Bank to Looped peptides of the protein M of SARS-CoV Urbani: unit not given here

Sequence	Binding of a rabbit serum to linear peptides of protein N of SARS-CoV Urbani (Rabbit serum linear peptides) [1]	Binding of a rabbit serum to looped/cyclic peptides of protein N of SARS-CoV Urbani (Rabbit serum looped peptides) [1]	Binding of serum 1a to linear peptides of protein N of SARS-CoV Urbani [2]	Binding of serum 1a to looped/cyclic peptides of protein N of SARS-CoV Urbani [2]	Binding of serum 1b to linear peptides of protein N of SARS-CoV Urbani [2]	Binding of serum 1b to looped/cyclic peptides of protein N of SARS-CoV Urbani [2]	Binding of serum 2 to linear peptides of protein N of SARS-CoV Urbani [2]	Binding of serum 2 to looped/cyclic peptides of protein N of SARS-CoV Urbani [2]	Binding of serum 6 to linear peptides of protein N of SARS-CoV Urbani [2]	Binding of serum 6 to looped/cyclic peptides of protein N of SARS-CoV Urbani [2]	Binding of serum 37 to linear peptides of protein N of SARS-CoV Urbani [2]	Binding of serum 37 to looped/cyclic peptides of protein N of SARS-CoV Urbani [2]	Binding of serum 62 to linear peptides of protein N of SARS-CoV Urbani [2]	Binding of serum 62 to looped/cyclic peptides of protein N of SARS-CoV Urbani [2]	Binding of serum London to linear peptides of protein N of SARS-CoV Urbani [2]	Binding of serum London to looped/cyclic peptides of protein N of SARS-CoV Urbani [2]	Binding of serum SARS-green to linear peptides of protein N of SARS-CoV Urbani [2]	Binding of serum SARS-green to looped/cyclic peptides of protein N of SARS-CoV Urbani [2]	Binding of serum SARS-yellow to linear peptides of protein N of SARS-CoV Urbani [2]	Binding of serum SARS-yellow to looped/cyclic peptides of protein N of SARS-CoV Urbani [2]	further results
VRGGDGKMKELSPRW	0.2	0.4	0.2	0.3	0.1	0.2	0.2	0.5	0.2	0.2	0.6	0.6	0.6	0.6	0.4	0.5	0.4	0.1	0.7	0.3	Binding of antibody 03-018 to linear peptides of the N protein of SARS-CoV Urbani [3]: 0.1; Binding of antibody 03-018 to looped/cyclic peptides of the N protein of SARS-CoV Urbani [3]: 0.2; Binding of Control Serum Blood-Bank to Looped peptides [4]: 0.7; Binding of Control serum Blood-bank to linear peptides [4]: 0.6; Binding of Control serum LUMC to linear peptides [4]: 0.8; Binding of Control serum LUMC to looped peptides [4]: 0.7
AYKTFPPTEPKKDKK	0.2	0.0	0.2	0.1	0.1	0.1	0.3	0.2	0.2	0.0	0.7	0.2	0.8	0.1	0.6	0.1	0.3	0.0	0.7	0.0	Binding of antibody 03-018 to linear peptides of the N protein of SARS-CoV Urbani [3]: 0.1; Binding of antibody 03-018 to looped/cyclic peptides of the N protein of SARS-CoV Urbani [3]: 0.1; Control Serum Blood-Bank Looped peptides [4]: 0.3; Control serum Blood-bank linear peptides [4]: 0.7; Control serum LUMC linear peptides [4]: 0.6; Control serum LUMC looped peptides [4]: 0.1
